Experimental data published in article PMC4767141, “Discovery of Potent, Orally Bioavailable, Small-Molecule Inhibitors of WNT Signaling from a Cell-Based Pathway Screen” (Journal of Medicinal Chemistry, 2015).

What was measured:
D1 (h) = target: T1, D1 (h) (Homo sapiens, UniProt P21728); test: CEREP binding panel; conditions: antagonist radioligand, read-out: % Inhibition of Control Specific Binding
T1 construct: purchased Millipore KinaseProfiler (kinases); Cerep (receptors and ion channels)

D2S (h) = target: T2, D2S (h) (Homo sapiens, UniProt P14416); test: CEREP binding panel; conditions: antagonist radioligand, read-out: % Inhibition of Control Specific Binding
T2 construct: purchased Millipore KinaseProfiler (kinases); Cerep (receptors and ion channels)

GABA (non-selective) = test: CEREP binding panel; conditions: 10 μM, agonist radioligand
GAL2 (h) = target: T3, GAL2 (h) (Homo sapiens, UniProt O43603); test: CEREP binding panel; conditions: agonist radioligand, read-out: % Inhibition of Control Specific Binding
T3 construct: purchased Millipore KinaseProfiler (kinases); Cerep (receptors and ion channels)
T3 sequence (O43603 whole entry): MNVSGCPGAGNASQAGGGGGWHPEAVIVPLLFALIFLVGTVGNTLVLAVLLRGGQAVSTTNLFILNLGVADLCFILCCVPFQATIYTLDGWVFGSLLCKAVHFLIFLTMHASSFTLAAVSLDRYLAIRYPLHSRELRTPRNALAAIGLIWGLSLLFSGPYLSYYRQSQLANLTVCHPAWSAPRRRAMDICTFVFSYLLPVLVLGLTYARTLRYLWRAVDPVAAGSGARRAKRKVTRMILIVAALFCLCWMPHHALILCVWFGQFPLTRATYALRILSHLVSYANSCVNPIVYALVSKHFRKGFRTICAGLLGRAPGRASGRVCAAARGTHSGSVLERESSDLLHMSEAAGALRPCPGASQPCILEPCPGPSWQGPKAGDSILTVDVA

M1 (h) = target: T4, M1 (h) (Homo sapiens, UniProt P11229); test: CEREP binding panel; conditions: antagonist radioligand, read-out: % Inhibition of Control Specific Binding
T4 construct: purchased Millipore KinaseProfiler (kinases); Cerep (receptors and ion channels)

NK2 (h) = target: T5, NK2 (h) (Homo sapiens, UniProt P21452); test: CEREP binding panel; conditions: agonist radioligand, read-out: % Inhibition of Control Specific Binding
T5 construct: purchased Millipore KinaseProfiler (kinases); Cerep (receptors and ion channels)
T5 sequence (P21452 whole entry): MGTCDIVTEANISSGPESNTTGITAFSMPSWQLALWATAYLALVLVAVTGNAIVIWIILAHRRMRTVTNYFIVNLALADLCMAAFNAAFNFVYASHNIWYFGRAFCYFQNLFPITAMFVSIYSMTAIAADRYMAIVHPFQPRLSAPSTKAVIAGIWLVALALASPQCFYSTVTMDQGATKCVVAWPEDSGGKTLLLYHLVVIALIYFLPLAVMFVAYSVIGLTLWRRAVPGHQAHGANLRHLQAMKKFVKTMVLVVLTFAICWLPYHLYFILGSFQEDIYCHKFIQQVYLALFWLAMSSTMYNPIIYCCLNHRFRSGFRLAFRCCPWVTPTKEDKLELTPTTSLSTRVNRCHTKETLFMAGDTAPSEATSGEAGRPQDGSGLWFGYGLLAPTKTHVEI

Y2 (h) = target: T6, Y2 (h) (Homo sapiens, UniProt P49146); test: CEREP binding panel; conditions: agonist radioligand, read-out: % Inhibition of Control Specific Binding
T6 construct: purchased Millipore KinaseProfiler (kinases); Cerep (receptors and ion channels)

NOP (ORL1) (h) = target: T7, NOP (ORL1) (h) (Homo sapiens, UniProt P41146); test: CEREP binding panel; conditions: agonist radioligand, read-out: % Inhibition of Control Specific Binding
T7 construct: purchased Millipore KinaseProfiler (kinases); Cerep (receptors and ion channels)

5-HT1B = target: T8, 5-HT1B (Rattus norvegicus, UniProt P28564); test: CEREP binding panel; conditions: antagonist radioligand, read-out: % Inhibition of Control Specific Binding
T8 construct: purchased Millipore KinaseProfiler (kinases); Cerep (receptors and ion channels)

dopamine transporter (h) = target: T9, dopamine transporter (h) (Homo sapiens, UniProt Q01959); test: CEREP binding panel; conditions: antagonist radioligand, read-out: % Inhibition of Control Specific Binding
T9 construct: purchased Millipore KinaseProfiler (kinases); Cerep (receptors and ion channels)

ALK4 = target: T10, ALK4 (Homo sapiens, UniProt P36896); test: Millipore kinase panel; assay type: biochemical; conditions: read-out: % Control
T10 construct: purchased Millipore KinaseProfiler (kinases); Cerep (receptors and ion channels)

BRSK1 = target: T11, BRSK1 (Homo sapiens, UniProt Q8TDC3); test: Millipore kinase panel; assay type: biochemical; conditions: read-out: % Control
T11 construct: purchased Millipore KinaseProfiler (kinases); Cerep (receptors and ion channels)

EPHA2 = target: T12, EPHA2 (Homo sapiens, UniProt P29317); test: Millipore kinase panel; assay type: biochemical; conditions: read-out: % Control
T12 construct: purchased Millipore KinaseProfiler (kinases); Cerep (receptors and ion channels)

EPHA8 = target: T13, EPHA8 (Homo sapiens, UniProt P29322); test: Millipore kinase panel; assay type: biochemical; conditions: read-out: % Control
T13 construct: purchased Millipore KinaseProfiler (kinases); Cerep (receptors and ion channels)

FGFR3 = target: T14, FGFR3 (Homo sapiens, UniProt P22607); test: Millipore kinase panel; assay type: biochemical; conditions: read-out: % Control
T14 construct: purchased Millipore KinaseProfiler (kinases); Cerep (receptors and ion channels)

FGR = target: T15, FGR (Homo sapiens, UniProt P09769); test: Millipore kinase panel; assay type: biochemical; conditions: read-out: % Control
T15 construct: purchased Millipore KinaseProfiler (kinases); Cerep (receptors and ion channels)

FLT1 = target: T16, FLT1 (Homo sapiens, UniProt P17948); test: Millipore kinase panel; assay type: biochemical; conditions: read-out: % Control
T16 construct: purchased Millipore KinaseProfiler (kinases); Cerep (receptors and ion channels)

FMS = target: T17, FMS (Homo sapiens, UniProt P07333); test: Millipore kinase panel; assay type: biochemical; conditions: read-out: % Control
T17 construct: purchased Millipore KinaseProfiler (kinases); Cerep (receptors and ion channels)

HIPK3 = target: T18, HIPK3 (Homo sapiens, UniProt Q9H422); test: Millipore kinase panel; assay type: biochemical; conditions: read-out: % Control
T18 construct: purchased Millipore KinaseProfiler (kinases); Cerep (receptors and ion channels)

IRR = target: T19, IRR (Homo sapiens, UniProt P14616); test: Millipore kinase panel; assay type: biochemical; conditions: read-out: % Control
T19 construct: purchased Millipore KinaseProfiler (kinases); Cerep (receptors and ion channels)

JNK1ALPHA1 = target: T20, JNK1ALPHA1 (Homo sapiens, UniProt P45983); test: Millipore kinase panel; assay type: biochemical; conditions: read-out: % Control
T20 construct: purchased Millipore KinaseProfiler (kinases); Cerep (receptors and ion channels)
T20 sequence (P45983 1-384 isoform P45983-2): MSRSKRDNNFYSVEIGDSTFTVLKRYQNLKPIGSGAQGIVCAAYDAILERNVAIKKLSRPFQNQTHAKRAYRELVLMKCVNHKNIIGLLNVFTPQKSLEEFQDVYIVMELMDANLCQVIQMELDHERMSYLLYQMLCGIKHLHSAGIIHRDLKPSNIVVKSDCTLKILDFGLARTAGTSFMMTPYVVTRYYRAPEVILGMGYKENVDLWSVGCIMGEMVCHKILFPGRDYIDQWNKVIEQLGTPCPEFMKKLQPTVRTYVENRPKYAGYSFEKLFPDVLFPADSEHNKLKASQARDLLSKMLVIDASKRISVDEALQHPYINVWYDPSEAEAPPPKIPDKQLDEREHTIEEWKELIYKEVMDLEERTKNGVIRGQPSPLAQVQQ

JNK3 = target: T21, JNK3 (Homo sapiens, UniProt P53779); test: Millipore kinase panel; assay type: biochemical; conditions: read-out: % Control
T21 construct: purchased Millipore KinaseProfiler (kinases); Cerep (receptors and ion channels)

LKB1 = target: T22, LKB1 (Homo sapiens, UniProt Q15831); test: Millipore kinase panel; assay type: biochemical; conditions: read-out: % Control
T22 construct: purchased Millipore KinaseProfiler (kinases); Cerep (receptors and ion channels)
T22 sequence (Q15831 whole entry): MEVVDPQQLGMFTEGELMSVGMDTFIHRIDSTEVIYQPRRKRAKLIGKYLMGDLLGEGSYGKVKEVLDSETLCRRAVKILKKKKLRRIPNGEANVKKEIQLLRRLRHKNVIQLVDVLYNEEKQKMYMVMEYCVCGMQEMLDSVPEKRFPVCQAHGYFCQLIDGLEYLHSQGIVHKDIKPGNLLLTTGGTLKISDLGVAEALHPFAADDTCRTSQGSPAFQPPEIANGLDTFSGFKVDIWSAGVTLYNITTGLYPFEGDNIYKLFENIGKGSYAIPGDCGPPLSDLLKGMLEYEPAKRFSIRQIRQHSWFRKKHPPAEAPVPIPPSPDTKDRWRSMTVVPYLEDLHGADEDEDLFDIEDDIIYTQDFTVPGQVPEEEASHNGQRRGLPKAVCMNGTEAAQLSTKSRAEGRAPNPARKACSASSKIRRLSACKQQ
T22 sequence (Q7RTN6 whole entry partner): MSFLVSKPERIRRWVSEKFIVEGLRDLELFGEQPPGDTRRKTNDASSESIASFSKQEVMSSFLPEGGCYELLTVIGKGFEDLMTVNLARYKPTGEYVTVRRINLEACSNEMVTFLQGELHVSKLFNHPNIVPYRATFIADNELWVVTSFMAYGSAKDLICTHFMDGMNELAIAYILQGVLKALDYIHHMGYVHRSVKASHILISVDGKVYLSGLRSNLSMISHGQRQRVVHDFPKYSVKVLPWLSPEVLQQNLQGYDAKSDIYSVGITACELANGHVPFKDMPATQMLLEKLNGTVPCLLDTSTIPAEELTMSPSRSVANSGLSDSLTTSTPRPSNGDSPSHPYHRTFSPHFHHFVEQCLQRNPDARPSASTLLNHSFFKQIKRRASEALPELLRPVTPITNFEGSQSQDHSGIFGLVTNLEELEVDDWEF
T22 sequence (Q9Y376 whole entry partner): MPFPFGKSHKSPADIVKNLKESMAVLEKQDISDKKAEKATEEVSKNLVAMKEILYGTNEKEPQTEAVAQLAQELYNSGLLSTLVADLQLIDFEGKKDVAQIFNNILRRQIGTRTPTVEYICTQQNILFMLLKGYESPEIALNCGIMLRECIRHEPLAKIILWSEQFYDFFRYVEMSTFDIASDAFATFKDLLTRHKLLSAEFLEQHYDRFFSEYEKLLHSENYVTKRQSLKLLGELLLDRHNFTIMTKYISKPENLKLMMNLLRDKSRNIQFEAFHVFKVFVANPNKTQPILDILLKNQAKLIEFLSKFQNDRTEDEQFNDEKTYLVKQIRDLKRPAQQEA

MAPKAP-K3 = target: T23, MAPKAP-K3 (Homo sapiens, UniProt Q16644); test: Millipore kinase panel; assay type: biochemical; conditions: read-out: % Control
T23 construct: purchased Millipore KinaseProfiler (kinases); Cerep (receptors and ion channels)

MARK1 = target: T24, MARK1 (Homo sapiens, UniProt Q9P0L2); test: Millipore kinase panel; assay type: biochemical; conditions: read-out: % Control
T24 construct: purchased Millipore KinaseProfiler (kinases); Cerep (receptors and ion channels)

MEK1 = target: T25, MEK1 (Homo sapiens, UniProt Q02750); test: Millipore kinase panel; assay type: biochemical; conditions: read-out: % Control
T25 construct: purchased Millipore KinaseProfiler (kinases); Cerep (receptors and ion channels)

MST2 = target: T26, MST2 (Homo sapiens, UniProt Q13188); test: Millipore kinase panel; assay type: biochemical; conditions: read-out: % Control
T26 construct: purchased Millipore KinaseProfiler (kinases); Cerep (receptors and ion channels)

PAK4 = target: T27, PAK4 (Homo sapiens, UniProt O96013); test: Millipore kinase panel; assay type: biochemical; conditions: read-out: % Control
T27 construct: purchased Millipore KinaseProfiler (kinases); Cerep (receptors and ion channels)

PAR-1BALPHA = target: T28, PAR-1BALPHA (Homo sapiens, UniProt Q7KZI7); test: Millipore kinase panel; assay type: biochemical; conditions: read-out: % Control
T28 construct: purchased Millipore KinaseProfiler (kinases); Cerep (receptors and ion channels)

PIM-2 = target: T29, PIM-2 (Homo sapiens, UniProt Q9P1W9); test: Millipore kinase panel; assay type: biochemical; conditions: read-out: % Control
T29 construct: purchased Millipore KinaseProfiler (kinases); Cerep (receptors and ion channels)

PRAK = target: T30, PRAK (Homo sapiens, UniProt Q8IW41); test: Millipore kinase panel; assay type: biochemical; conditions: read-out: % Control
T30 construct: purchased Millipore KinaseProfiler (kinases); Cerep (receptors and ion channels)
T30 sequence (Q8IW41 whole entry): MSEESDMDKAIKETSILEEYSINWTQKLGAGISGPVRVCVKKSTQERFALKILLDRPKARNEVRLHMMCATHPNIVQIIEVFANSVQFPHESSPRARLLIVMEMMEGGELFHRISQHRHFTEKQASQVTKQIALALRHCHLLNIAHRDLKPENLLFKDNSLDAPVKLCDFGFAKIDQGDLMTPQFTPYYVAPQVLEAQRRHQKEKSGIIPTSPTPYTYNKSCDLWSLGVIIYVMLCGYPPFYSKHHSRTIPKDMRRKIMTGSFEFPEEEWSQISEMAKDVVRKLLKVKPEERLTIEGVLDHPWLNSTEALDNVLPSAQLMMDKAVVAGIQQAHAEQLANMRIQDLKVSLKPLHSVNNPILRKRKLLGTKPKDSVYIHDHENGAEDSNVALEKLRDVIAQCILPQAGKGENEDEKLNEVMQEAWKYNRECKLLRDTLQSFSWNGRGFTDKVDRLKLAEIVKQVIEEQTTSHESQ

PRK2 = target: T31, PRK2 (Homo sapiens, UniProt Q16513); test: Millipore kinase panel; assay type: biochemical; conditions: read-out: % Control
T31 construct: purchased Millipore KinaseProfiler (kinases); Cerep (receptors and ion channels)
T31 sequence (Q16513 whole entry): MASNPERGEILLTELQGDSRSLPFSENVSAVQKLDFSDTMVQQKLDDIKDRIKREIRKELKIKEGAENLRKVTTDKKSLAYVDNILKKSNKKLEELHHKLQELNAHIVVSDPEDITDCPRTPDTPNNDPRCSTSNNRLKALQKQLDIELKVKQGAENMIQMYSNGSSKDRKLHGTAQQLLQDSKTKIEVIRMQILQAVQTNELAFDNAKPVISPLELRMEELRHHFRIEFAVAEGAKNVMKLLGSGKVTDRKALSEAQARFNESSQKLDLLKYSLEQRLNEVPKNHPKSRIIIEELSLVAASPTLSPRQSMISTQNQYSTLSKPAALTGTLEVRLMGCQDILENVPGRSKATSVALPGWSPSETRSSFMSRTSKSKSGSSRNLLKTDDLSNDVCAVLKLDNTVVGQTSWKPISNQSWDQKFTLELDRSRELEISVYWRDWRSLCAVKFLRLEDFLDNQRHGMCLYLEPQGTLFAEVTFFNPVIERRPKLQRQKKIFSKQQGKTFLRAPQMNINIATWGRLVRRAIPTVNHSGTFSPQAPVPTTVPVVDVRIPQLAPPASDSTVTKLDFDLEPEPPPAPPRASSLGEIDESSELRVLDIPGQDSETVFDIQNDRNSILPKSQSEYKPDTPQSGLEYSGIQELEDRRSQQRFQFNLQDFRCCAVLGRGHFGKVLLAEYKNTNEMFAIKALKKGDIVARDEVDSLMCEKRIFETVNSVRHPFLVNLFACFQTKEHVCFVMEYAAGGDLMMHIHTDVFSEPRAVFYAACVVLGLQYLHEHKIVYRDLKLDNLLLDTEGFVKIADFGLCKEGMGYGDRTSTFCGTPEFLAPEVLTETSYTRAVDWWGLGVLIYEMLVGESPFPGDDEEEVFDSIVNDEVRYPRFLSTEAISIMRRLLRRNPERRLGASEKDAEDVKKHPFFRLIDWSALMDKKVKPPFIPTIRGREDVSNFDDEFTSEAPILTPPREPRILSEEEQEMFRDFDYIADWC

CRAF = target: T32, CRAF (Homo sapiens, UniProt P04049); test: Millipore kinase panel; assay type: biochemical; conditions: read-out: % Control
T32 construct: purchased Millipore KinaseProfiler (kinases); Cerep (receptors and ion channels)

RSE = target: T33, RSE (Homo sapiens, UniProt Q06418); test: Millipore kinase panel; assay type: biochemical; conditions: read-out: % Control
T33 construct: purchased Millipore KinaseProfiler (kinases); Cerep (receptors and ion channels)

SAPK2B = target: T34, SAPK2B (Homo sapiens, UniProt Q15759); test: Millipore kinase panel; assay type: biochemical; conditions: read-out: % Control
T34 construct: purchased Millipore KinaseProfiler (kinases); Cerep (receptors and ion channels)
T34 sequence (Q15759 whole entry): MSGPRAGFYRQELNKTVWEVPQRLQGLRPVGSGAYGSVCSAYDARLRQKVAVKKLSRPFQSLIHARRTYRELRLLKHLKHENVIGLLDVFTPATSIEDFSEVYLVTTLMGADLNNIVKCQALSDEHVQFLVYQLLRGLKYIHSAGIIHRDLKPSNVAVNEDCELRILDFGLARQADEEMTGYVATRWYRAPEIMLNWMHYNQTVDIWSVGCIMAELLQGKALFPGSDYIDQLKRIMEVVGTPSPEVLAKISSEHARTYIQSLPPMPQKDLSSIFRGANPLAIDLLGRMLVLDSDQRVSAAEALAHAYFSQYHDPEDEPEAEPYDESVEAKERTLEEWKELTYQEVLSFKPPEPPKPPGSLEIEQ

SRPK2 = target: T35, SRPK2 (Homo sapiens, UniProt P78362); test: Millipore kinase panel; assay type: biochemical; conditions: read-out: % Control
T35 construct: purchased Millipore KinaseProfiler (kinases); Cerep (receptors and ion channels)

TBK1 = target: T36, TBK1 (Homo sapiens, UniProt Q9UHD2); test: Millipore kinase panel; assay type: biochemical; conditions: read-out: % Control
T36 construct: purchased Millipore KinaseProfiler (kinases); Cerep (receptors and ion channels)

TRKA = target: T37, TRKA (Homo sapiens, UniProt P04629); test: Millipore kinase panel; assay type: biochemical; conditions: read-out: % Control
T37 construct: purchased Millipore KinaseProfiler (kinases); Cerep (receptors and ion channels)
T37 sequence (P04629 33-796): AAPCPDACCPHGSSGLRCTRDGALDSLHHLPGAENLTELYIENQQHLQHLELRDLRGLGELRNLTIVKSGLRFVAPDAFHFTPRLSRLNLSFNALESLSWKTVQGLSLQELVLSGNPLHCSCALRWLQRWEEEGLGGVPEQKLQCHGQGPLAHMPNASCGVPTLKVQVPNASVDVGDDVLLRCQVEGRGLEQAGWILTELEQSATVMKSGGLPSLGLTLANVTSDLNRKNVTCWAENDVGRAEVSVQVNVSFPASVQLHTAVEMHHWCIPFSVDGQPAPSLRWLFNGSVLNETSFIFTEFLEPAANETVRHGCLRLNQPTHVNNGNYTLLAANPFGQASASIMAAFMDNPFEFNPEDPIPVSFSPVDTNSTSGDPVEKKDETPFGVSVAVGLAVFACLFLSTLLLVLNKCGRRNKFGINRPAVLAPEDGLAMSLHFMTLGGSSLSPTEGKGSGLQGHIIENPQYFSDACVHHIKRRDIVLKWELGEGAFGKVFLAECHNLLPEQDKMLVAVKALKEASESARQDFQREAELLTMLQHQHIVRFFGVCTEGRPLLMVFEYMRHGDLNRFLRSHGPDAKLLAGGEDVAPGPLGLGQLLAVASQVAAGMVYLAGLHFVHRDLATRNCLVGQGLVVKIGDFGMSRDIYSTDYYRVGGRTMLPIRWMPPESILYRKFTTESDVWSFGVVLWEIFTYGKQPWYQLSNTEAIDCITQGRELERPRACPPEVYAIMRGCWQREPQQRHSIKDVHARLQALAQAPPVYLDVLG

TSSK1 = target: T38, TSSK1 (Homo sapiens, UniProt Q9BXA7); test: Millipore kinase panel; assay type: biochemical; conditions: read-out: % Control
T38 construct: purchased Millipore KinaseProfiler (kinases); Cerep (receptors and ion channels)

YES = target: T39, YES (Homo sapiens, UniProt P07947); test: Millipore kinase panel; assay type: biochemical; conditions: read-out: % Control
T39 construct: purchased Millipore KinaseProfiler (kinases); Cerep (receptors and ion channels)

CK1GAMMA1 = target: T40, CK1GAMMA1 (Homo sapiens, UniProt Q9HCP0); test: Millipore kinase panel; assay type: biochemical; conditions: read-out: % Control
T40 construct: purchased Millipore KinaseProfiler (kinases); Cerep (receptors and ion channels)

RSK4 = target: T41, RSK4 (Homo sapiens, UniProt Q9UK32); test: Millipore kinase panel; assay type: biochemical; conditions: read-out: % Control
T41 construct: purchased Millipore KinaseProfiler (kinases); Cerep (receptors and ion channels)

GCK = target: T42, GCK (Homo sapiens, UniProt Q12851); test: Millipore kinase panel; assay type: biochemical; conditions: read-out: % Control
T42 construct: purchased Millipore KinaseProfiler (kinases); Cerep (receptors and ion channels)

IGF-1R, ACTIVATED = target: T43, IGF-1R, ACTIVATED (Homo sapiens, UniProt P08069); test: Millipore kinase panel; assay type: biochemical; conditions: read-out: % Control
T43 construct: purchased Millipore KinaseProfiler (kinases); Cerep (receptors and ion channels)

`Cn1cc(-c2ccc(-c3cncc(Cl)c3N3CCC4(CCNC4=O)CC3)cc2)cn1` [Compound 74, 8-(3-Chloro-5-(4-(1-methyl-1H-pyrazol-4-yl)phenyl)pyridin-4-yl)-2,8-diazaspiro[4.5]decan-1-one] was tested, and the inhibition at 10 µM (D1 (h)) was 7%, the inhibition at 10 µM (D2S (h)) was 5% and the “% Inhibition of Control Specific Binding” value (GABA (non-selective)) was 5%. For the same compound, the inhibition at 10 µM (GAL2 (h)) was 2%, the inhibition at 10 µM (M1 (h)) was 21% and the inhibition at 10 µM (NK2 (h)) was -17%. The inhibition at 10 µM (Y2 (h)) was -2%, the inhibition at 10 µM (NOP (ORL1) (h)) was 3% and the inhibition at 10 µM (5-HT1B) was -7%. For the same compound, the inhibition at 10 µM (dopamine transporter (h)) was 40%, the remaining activity at 1 µM (ALK4) was -12% and the remaining activity at 1 µM (BRSK1) was -25%. For the same compound, the remaining activity at 1 µM (EPHA2) was -7%, the remaining activity at 1 µM (EPHA8) was -7% and the remaining activity at 1 µM (FGFR3) was -4%. The remaining activity at 1 µM (FGR) was 0%, the remaining activity at 1 µM (FLT1) was -5% and the remaining activity at 1 µM (FMS) was -21%. For the same compound, the remaining activity at 1 µM (HIPK3) was -2%, the remaining activity at 1 µM (IRR) was 3% and the remaining activity at 1 µM (JNK1ALPHA1) was -9%. It also gave a remaining activity at 1 µM (JNK3) of -7%, a remaining activity at 1 µM (LKB1) of 5% and a remaining activity at 1 µM (MAPKAP-K3) of 7%. For the same compound, the remaining activity at 1 µM (MARK1) was 2%, the remaining activity at 1 µM (MEK1) was 10% and the remaining activity at 1 µM (MST2) was 4%. It also gave a remaining activity at 1 µM (PAK4) of 9%, a remaining activity at 1 µM (PAR-1BALPHA) of 4% and a remaining activity at 1 µM (PIM-2) of 13%. It also gave a remaining activity at 1 µM (PRAK) of 13%, a remaining activity at 1 µM (PRK2) of 0% and a remaining activity at 1 µM (CRAF) of 5%. It also gave a remaining activity at 1 µM (RSE) of -17%, a remaining activity at 1 µM (SAPK2B) of 0% and a remaining activity at 1 µM (SRPK2) of -10%. It also gave a remaining activity at 1 µM (TBK1) of 4%, a remaining activity at 1 µM (TRKA) of -7% and a remaining activity at 1 µM (TSSK1) of 2%. The remaining activity at 1 µM (YES) was 7%, the remaining activity at 1 µM (CK1GAMMA1) was -25% and the remaining activity at 1 µM (RSK4) was -17%. The remaining activity at 1 µM (GCK) was -28% and the remaining activity at 1 µM (IGF-1R, ACTIVATED) was 11%.
